Measurements from patent US20200270309A1, “MALEIMIDE GROUP-MODIFIED ANGIOGENESIS INHIBITOR HM-1 AND USE THEREOF” (NANJING ANJI BIOLOGICAL TECHNOLOGY CO., LTD, priority 2017, published 2020).
Marks after values point to notes of the source that are not given here. Peptide text beside a SMILES is read from it. * marks the point of attachment. X59 = O=C1C=CC(=O)N1c1cccc(CCCCCCCCC(=O)*)c1

Tests used:
[1] = system: corneal neovascularization; test: Corneal neovascularization induced by alkali burn in BALB/c mice; assay type: in vivo; parameters: Inhibition rate (corneal neovascularization): concentration or dose not given beside the values; settings: day 14 after alkali burn, vitreous injection once a day for 1 week
[2] = system: human retinal capillary endothelial cells (HRCECs); test: MTT proliferation inhibition on HRCECs; assay type: cell-based; settings: 48 h; for A570 nm-A630 nm: mean±SD
Protocol: An MTT method was used to detect the inhibitory activity of the angiogenesis inhibitor polypeptide on proliferation of HRCECs. HRCECs were digested and collected with trypsin after being cultured in an incubator at 37° C. with 5% CO2 to a density of 90% or more. The cells were resuspended with a culture solution and counted under a microscope, the cell concentration was adjusted to 3.0×10^4 cells/mL, and the cell suspension was inoculated into a 96-well plate at 100 μL/well, and cultured overnight in an incubator at 37° C. with 5% CO2. After the cells were completely adhered to the wall, cells with the addition of the angiogenesis inhibitor polypeptide were used as administration groups, cells with the addition of Avastin were used as a positive control group, and cells with the addition of culture solution without any drugs were used as a blank control group. The cells were diluted to respective predetermined concentrations with the culture solution. The diluent were added into 96-well plates respectively at 100 μL per well, and the cells were cultured at 37° C. for 48 h in an incubator with 5% CO2. 20 μL of 5 mg/mL MTT was added into each well of the 96-well plate, and the cultivation was continued for 4 h. The culture medium was removed, and 100 μL of DMSO was added to each well for dissolution. The absorbance was measured at a detection wavelength of 570 nm and a reference wavelength of 630 nm using a microplate reader, and the PIR was calculated by the formula as follows:
PIR (%)=1−administration group/negative group
The experiment was repeated independently three times. The results were expressed as mean±SD, and statistical T test was conducted. *P<0.05 indicates significant difference, and **P<0.01 indicates extremely significant difference.

[3] = system: collagen-induced arthritis; test: Mouse collagen-induced arthritis (CIA) animal model; assay type: in vivo; settings: DBA/1 mice CIA model, dose 4.0 mg/kg, subcutaneous from day 30, n=10
[4] = system: xylene-induced ear swelling; test: Xylene-induced mouse ear swelling; assay type: in vivo; settings: Kunming mice, injected once a day for 5 days; for Inhibition rate (%): xylene-induced ear swelling
Protocol: Kunming mice were taken, a normal saline group was taken as a blank control group, an aspirin group (200 mg/kg) was taken as a positive control group, and X1-X90 administration groups were taken as test groups. The mice were injected once a day for 5 consecutive days. The blank control group was given an equal volume of normal saline. One hour after the last administration, 0.05 mL of xylene was applied to both sides of the right ear of each mouse to cause inflammation, while no drug was applied to the left ear as a normal ear. Two hours later, the mice were put to death by dislocation. Two ears were cut along the auricle. Ear pieces were taken with a puncher and weighed, and the swelling degree and the swelling rate were calculated. Swelling degree=right ear piece weight-left ear piece weight, swelling rate=(swelling degree/left ear piece weight)*100%. Statistical t-test was conducted on the experimental results. *P<0.05 indicates significant difference, and **P<0.01 indicates extremely significant difference.

[5] = system: HUVECs; test: Transwell migration inhibition on HUVECs; assay type: cell-based, human; settings: for Inhibition rate (%): HUVEC migration vs blank control; for Cell migration number (Mean ± SD): HUVECs, transwell, 24 h
[6] = system: carrageenan-induced toe swelling; test: Carrageenan-induced toe swelling in rats; assay type: in vivo; settings: SD rats; for Swelling degree 1 h: 1 h after carrageenan; for Swelling degree 3 h: 3 h after carrageenan; for Swelling degree 5 h: 5 h after carrageenan; for Swelling degree 7 h: 7 h after carrageenan
Protocol: The rats were injected once a day, and the model group was given the same volume of normal saline for 3 d and fed normally. […] The foot swelling degree was calculated according to the following formula: foot swelling degree (mL)=foot volume after inflammation-foot volume before inflammation. The number of milliliters of overflow liquid was recorded (method: a ballpoint pen is used to circle the protruding point of the right joint as a measurement mark, and the right hind feet of each rat are sequentially placed into the volume measurer, so that the hind limbs are exposed outside the barrel, and the immersion depth is at the coincidence of the circle and the liquid level. After the foot enters the liquid, the liquid level rises, and the volume of overflow liquid is the volume of the right hind foot of the rat, and the normal volume of the right hind foot of each rat is measured in sequence).

[7] = Half-lives and pharmacokinetic parameters of polypeptides vs HM-1; settings: in vivo
[8] = system: choroidal neovascularization; test: Choroidal neovascularization in rats (laser photocoagulation, FFA); assay type: in vivo; settings: BN rats
Protocol: 6-8 weeks male BN rats were fully anesthetized by intraperitoneal injection of 846 compound anesthetic with a concentration of 0.5 mL/kg. Compound tropicamide eye drops were used once 5 min before laser photocoagulation to fully dilate the pupils of both eyes. The animals were fixed and subjected to krypton laser photocoagulation equidistantly around an optic disc with the aid of a −53.00D corneal contact lens at a distance of 2PD from the optic disc. A total of 8 photocoagulation spots were obtained. The laser wavelength was 647.1 nm, the power was 350 mW, and the diameter and time of the photocoagulation spots were 50 μm and 0.05 s respectively. Fundus photography was performed immediately after photocoagulation. FFA, histopathology and transmission electron microscopy were performed on the days 3, 7, 14, 21 and 28 after photocoagulation respectively.
Through fundus photography and FFA examination, it was confirmed that the fluorescein leakage of the photocoagulation spot reached its peak on day 21 after photocoagulation. At the same time, histopathological examination was carried out.
Rats with successful modeling were randomly grouped, with 5 rats in each group. The groups were marked as a negative control group and X1-X90 treatment groups respectively. The rats were injected with normal saline and X1-X90 (the doses of X1-X90 were each 0.05 μM) in the vitreous chamber once a day for 1 week. FFA examination was carried out 3 days, 7 days, 14 days and 28 days after administration.

[9] = day 3 after administration, total light spot number was 297, 0.05 μM in the vitreous chamber once a day for 1 week
[10] = day 7 after administration, total light spot number was 186, 0.05 μM in the vitreous chamber once a day for 1 week
[11] = day 14 after administration, total light spot number was 137, 0.05 μM in the vitreous chamber once a day for 1 week
[12] = day 28 after administration, total light spot number was 69, 0.05 μM in the vitreous chamber once a day for 1 week

- AUC(0-inf) [7]: 30900 ± 7750 ng·h/mL
- MRT inf [7]: 55.3 ± 11.8 h
- clearance [7]: 0.54 mL/min/kg
- half-life ([7]; T1/2β (half-life)): 38.33 ± 0.31 h
Structure (SMILES): C[C@H](NC(=O)CNC(=O)[C@H](CCCNC(=N)N)NC(=O)CCCCCCCCc1cccc(N2C(=O)C=CC2=O)c1)C(=O)N[C@@H](CC(=O)O)C(=O)N[C@@H](CCCNC(=N)N)C(=O)N[C@@H](C)C(=O)NCC(=O)NCC(=O)NCC(=O)NCC(=O)N[C@@H](CCCNC(=N)N)C(=O)NCC(=O)N[C@@H](CC(=O)O)C(=O)O [X32] (X59-RGADRAGGGGRGD-OH)
- Inhibition rate (corneal neovascularization) [1]: 50.25%
- MVD (corneal microvessel density) [1]: 33.45 ± 6.453
- Inhibition rate (%) ([2]; dose 0.05 μM): 52.91%*
- A570 nm-A630 nm ([2]; dose 0.05 μM): 0.6224 ± 0.08338
- Inhibition rate (%) ([2]; dose 0.1 μM): 54.38%**
- A570 nm-A630 nm ([2]; dose 0.1 μM): 0.6030 ± 0.05575
- Inhibition rate (%) ([2]; dose 0.2 μM): 69.51%*
- A570 nm-A630 nm ([2]; dose 0.2 μM): 0.4030 ± 0.00097
- Joint swelling degree (mm) [3]: 0.81 ± 0.16 mm
- Left and right paw swelling degree (mm) [3]: 0.81 ± 0.13 mm
- Clinical score ([3]; highest score 16): 9.06 ± 1.26
- Swelling degree ([4]; dose 2 mg/kg, right minus left ear piece weight 2 h after xylene): 5.17 ± 0.06 mg
- Inhibition rate (%) ([4]; dose 2 mg/kg): 17.01%
- Swelling degree (mg) ([4]; dose 4 mg/kg, right minus left ear piece weight 2 h after xylene): 4.83 ± 0.02* mg
- Inhibition rate (%) ([4]; dose 4 mg/kg): 22.47%
- Swelling degree (mg) ([4]; dose 8 mg/kg, right minus left ear piece weight 2 h after xylene): 3.69 ± 0.56** mg
- Inhibition rate (%) ([4]; dose 8 mg/kg): 40.77%
- Inhibition rate (%) ([5]; dose 0.05 μM): 41.92%
- Inhibition rate (%) ([5]; dose 0.1 μM): 47.67%
- Inhibition rate (%) ([5]; dose 0.2 μM): 56.61%
- Cell migration number (Mean ± SD) ([5]; dose 0.05 μM): 622.57 ± 49.41
- Cell migration number (Mean ± SD) ([5]; dose 0.1 μM): 560.86 ± 50.91
- Cell migration number (Mean ± SD) ([5]; dose 0.2 μM): 465.06 ± 48.23
- Swelling degree 1 h ([6]; 2.0 mg/kg once a day for 3 d): 0.25 ± 0.18 mg
- Swelling degree 3 h ([6]; 2.0 mg/kg once a day for 3 d): 0.35 ± 0.13 mg
- Swelling degree 5 h ([6]; 2.0 mg/kg once a day for 3 d): 0.36 ± 0.12 mg
- Swelling degree 7 h ([6]; 2.0 mg/kg once a day for 3 d): 0.31 ± 0.17 mg
- Swelling degree 1 h ([6]; 4.0 mg/kg once a day for 3 d): 0.24 ± 0.14 mg
- Swelling degree 3 h ([6]; 4.0 mg/kg once a day for 3 d): 0.33 ± 0.17 mg
- Swelling degree 5 h ([6]; 4.0 mg/kg once a day for 3 d): 0.41 ± 0.15 mg
- Swelling degree 7 h ([6]; 4.0 mg/kg once a day for 3 d): 0.35 ± 0.12 mg
- CNV Incidence (%) [8, 9]: 54.21%
- Leakage Light spot number [8, 9]: 161
- CNV Incidence (%) [8, 10]: 46.24%
- Leakage Light spot number [8, 10]: 86
- CNV Incidence (%) [8, 11]: 43.07%
- Leakage Light spot number [8, 11]: 59
- CNV Incidence (%) [8, 12]: 42.03%
- Leakage Light spot number [8, 12]: 29
